In publication PMC11311821, “Biochemical Characterisation of Sis: A Distinct Thermophilic PETase with Enhanced NanoPET Substrate Hydrolysis and Thermal Stability” (International Journal of Molecular Sciences, 2024) one finds Km data, which are given here for one molecule.

The test system of the assay is Sis. In words: spectrophotometric p-nitrophenol release at […] nm. Type of assay: biochemical, metagenome: geothermal site (36 °C, pH 9.8). The conditions noted are these: optimal conditions of pH and temperature (sodium-phosphate pH 7.0, 70 °C).

In the case of `CCCC(=O)Oc1ccc([N+](=O)[O-])cc1` [pNP-butyrate], the Km worked out at 80 ± 10 µM.

One may read the Km as the concentration of substrate that gives half-maximal velocity.
